Test systems include IGROV1 ovarian; SF-539 CNS; NCI-H226 lung; UO-31 renal; NCI-H23 lung; HT29 colon; NCI/ADR-RES ovarian; MCF7 breast; RPMI-8226 leukemia; SR leukemia.
Holding throughout (test): NCI anticancer screen, dose series, 48 h

Our source for the TGI and GI50 values is PubChem BioAssay (NCI).

Where “and” joins values, the source holds several entries; their conditions need not be identical. Equal entries are not always repeated.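 Growth conditions: 96-well plates. Treatment: test compound, 48 hours, 5 concentrations. Analysis: linear interpolation between bracketing concentrations; unreached endpoints set to highest concentration. At the GI50, growth is halved. The concentration for full growth arrest is given as TGI.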 Where only a bound is given, the exact number is not on record here.

On to `C/C=C(\C)CC/C=C/CO[Si](C)(C)C(C)(C)C`, for which the TGI in the test with IGROV1 ovarian, with SF-539 CNS, in the test with NCI-H226 lung, with UO-31 renal, in the test on NCI-H23 lung and with HT29 colon was greater than 100 µM in each case. Also, the TGI was greater than 100 µM in the test on NCI/ADR-RES ovarian, greater than 100 µM with MCF7 breast, greater than 100 µM in the test with RPMI-8226 leukemia and 56.3 µM with SR leukemia.
Take `COc1ccc(OC)c(C(=O)c2oc3ccc(Br)cc3c2N)c1`: the GI50 in the test with IGROV1 ovarian was 2.13 µM; in the test on SF-539 CNS it was 0.237 µM; with NCI-H226 lung, 2.38 µM; in the test on UO-31 renal, 0.707 µM; with NCI-H23 lung, 0.649 µM; in the test with HT29 colon it was 0.326 µM. For the same compound, the GI50 in the test with NCI/ADR-RES ovarian is 0.341 µM; in the test on MCF7 breast, 0.289 µM; in the test with RPMI-8226 leukemia, 0.37 µM; in the test on SR leukemia it was 0.193 µM. The TGI was greater than 87.4 µM with IGROV1 ovarian; 0.712 µM with SF-539 CNS; greater than 100 µM with NCI-H226 lung; greater than 69.3 µM in the test on UO-31 renal; 24 µM in the test on NCI-H23 lung; 10.7 µM in the test on HT29 colon. Further, the TGI is greater than 77.7 µM in the test on NCI/ADR-RES ovarian, greater than 48.2 µM in the test on MCF7 breast, 6.51 µM with RPMI-8226 leukemia and 19.1 µM in the test with SR leukemia.
With `Nc1nc(-c2cccc(Cl)c2)c(-c2ccc3ncccc3n2)s1`, the GI50 is 22.4 µM in the test with IGROV1 ovarian; greater than 25 µM in the test with SF-539 CNS; greater than 22 µM with NCI-H226 lung; 10.1 µM with UO-31 renal; greater than 25 µM with NCI-H23 lung; greater than 25 µM with HT29 colon. Moreover, the GI50 in the test with NCI/ADR-RES ovarian, with MCF7 breast, with RPMI-8226 leukemia and in the test on SR leukemia was greater than 25 µM in each case. In addition, the TGI in the test on IGROV1 ovarian, with SF-539 CNS, in the test on NCI-H226 lung, in the test on UO-31 renal, in the test with NCI-H23 lung and in the test with HT29 colon was greater than 25 µM each time. The TGI in the test with NCI/ADR-RES ovarian, in the test on MCF7 breast, in the test with RPMI-8226 leukemia and with SR leukemia was greater than 25 µM in each case.
In the case of `CC(C)(C)c1cc(NC(=O)Cc2ccc(-c3cnc4cc(-c5cnn(CCN6CCOCC6)c5)ccc4n3)cc2)no1`, the GI50 in the test on IGROV1 ovarian is 0.106 µM and 0.104 µM; in the test on SF-539 CNS, 0.0878 µM and 0.236 µM and 0.344 µM; with NCI-H226 lung, 0.223 µM and 0.533 µM and 0.0783 µM; in the test on UO-31 renal it was 0.135 µM and 0.0883 µM; with NCI-H23 lung, 0.627 µM and 1.08 µM and 0.131 µM; in the test with HT29 colon it was 0.613 µM and 1.06 µM and 0.116 µM. For the same compound, the GI50 in the test with NCI/ADR-RES ovarian is 1.08 µM and 0.745 µM and 0.117 µM; in the test on MCF7 breast, 0.301 µM and 0.806 µM and 0.194 µM; in the test with RPMI-8226 leukemia, 0.249 µM and 0.609 µM and 0.0985 µM; with SR leukemia it was 0.197 µM and 0.336 µM and 0.0938 µM. The TGI is 0.65 µM and 1.11 µM in the test on IGROV1 ovarian; 3.68 µM and 3.05 µM and > 3 µM with SF-539 CNS; 50 µM and > 100 µM and > 3 µM in the test on NCI-H226 lung; 50 µM and > 100 µM and > 3 µM in the test on NCI-H23 lung; 50 µM and > 100 µM and > 3 µM in the test on HT29 colon; 50 µM and > 100 µM and > 3 µM in the test on NCI/ADR-RES ovarian. In addition, the TGI in the test on MCF7 breast is 50 µM and > 100 µM and > 3 µM; in the test with RPMI-8226 leukemia, 50 µM and > 100 µM and > 3 µM; with SR leukemia it was 50 µM and > 100 µM and > 3 µM.
Regarding `N#Cc1cccc(NC(=O)c2cc(-c3ccc(F)cc3F)ccc2O)c1`, the GI50 with IGROV1 ovarian is 2.98 µM; in the test on SF-539 CNS, 3.07 µM; in the test on NCI-H226 lung, 1.67 µM; in the test with UO-31 renal, 2.26 µM; with NCI-H23 lung it was 1.43 µM; in the test with HT29 colon it was 4.73 µM. Also, the GI50 was 2.19 µM in the test on NCI/ADR-RES ovarian, 2.15 µM in the test on MCF7 breast, 0.675 µM in the test on RPMI-8226 leukemia and 3.72 µM in the test on SR leukemia. Moreover, the TGI with IGROV1 ovarian amounted to 68.6 µM; in the test on SF-539 CNS, 10.5 µM; in the test with NCI-H226 lung, 6.43 µM; with UO-31 renal, 6.99 µM; with NCI-H23 lung, 4.35 µM; in the test on HT29 colon, 37.3 µM. Further, the TGI with NCI/ADR-RES ovarian amounted to 6.84 µM; with MCF7 breast it was 9.72 µM; in the test on RPMI-8226 leukemia, 3.16 µM; in the test on SR leukemia, 89.2 µM.
Regarding `Nc1ncn(C2CC(O)C(CO)O2)c(=O)n1` (centres undefined), the TGI is 372 µM in the test with IGROV1 ovarian; 158 µM in the test with SF-539 CNS; greater than 331 µM in the test on NCI-H226 lung; greater than 375 µM in the test on UO-31 renal; greater than 375 µM in the test with NCI-H23 lung; greater than 375 µM with HT29 colon. Further, the TGI in the test with NCI/ADR-RES ovarian was greater than 375 µM; in the test on MCF7 breast, greater than 375 µM; with RPMI-8226 leukemia, greater than 375 µM; with SR leukemia, greater than 141 µM.
For the compound `COc1ccc(-n2cc(-c3cc(OC)c(OC)c(OC)c3)[nH]c2=O)cc1Cl`, the GI50 in the test on IGROV1 ovarian was greater than 100 µM; in the test with SF-539 CNS, 35 µM; in the test with NCI-H226 lung it was greater than 100 µM; in the test on UO-31 renal, greater than 100 µM; with NCI-H23 lung it was greater than 100 µM; with HT29 colon, greater than 100 µM. Also, the GI50 in the test with NCI/ADR-RES ovarian was greater than 100 µM; in the test on MCF7 breast, greater than 100 µM; in the test on RPMI-8226 leukemia it was greater than 100 µM; with SR leukemia, 55.4 µM. Besides, the TGI in the test on IGROV1 ovarian, in the test on SF-539 CNS, in the test with NCI-H226 lung, with UO-31 renal, in the test with NCI-H23 lung and in the test with HT29 colon was greater than 100 µM in each case. Also, the TGI in the test with NCI/ADR-RES ovarian, in the test with MCF7 breast, with RPMI-8226 leukemia and in the test on SR leukemia was greater than 100 µM throughout.
Take `Cc1ccc(C(=O)Nc2ccc(CN3CCN(C)CC3)c(C(F)(F)F)c2)cc1C#Cc1cnc(N)c2ccccc12`: the GI50 with IGROV1 ovarian is 0.103 µM; in the test on SF-539 CNS it was 0.729 µM; in the test on NCI-H226 lung, 1.16 µM; in the test with UO-31 renal it was 0.241 µM; in the test with NCI-H23 lung, 0.799 µM; in the test with HT29 colon, 0.367 µM. The GI50 with NCI/ADR-RES ovarian was 0.594 µM; in the test with MCF7 breast, 0.799 µM; in the test on RPMI-8226 leukemia it was 0.736 µM; in the test with SR leukemia, 0.134 µM. Besides, the TGI in the test on IGROV1 ovarian worked out at 0.814 µM; with SF-539 CNS, 1.41 µM; with NCI-H226 lung, 6.54 µM; in the test with UO-31 renal, 0.886 µM; with NCI-H23 lung, 1.76 µM; in the test on HT29 colon it was 1.41 µM. Further, the TGI in the test with NCI/ADR-RES ovarian worked out at 1.82 µM; in the test with MCF7 breast it was 1.61 µM; with RPMI-8226 leukemia, 2.08 µM; in the test with SR leukemia, 2.66 µM.
